Results from patent US20140127194A1, “COMBINED PHARMACEUTICAL COMPOSITIONS FOR THE TREATMENT OF TUMORS” (HYD Rákkutató és Gyógyszerfejlesztö Kft., priority 2011, published 2014).

What was measured:
breast cancer = settings: Taxotere without DDW, general experience; cited from earlier work
[1] = test system: chronic myeloid leukemia (CML); test: Case report: chronic myeloid leukemia patient, DDW with Litaril, then STI 571 (Gleevec); assay type: in vivo, human
Method: b/ In a young patient in 1998, chronic myeloid leukemia (CML) was diagnosed, and was medicated with Litaril because of high WBC count. […] In February 2001 the patient was enrolled in the clinical trial of the drug candidate STI 571 (Gleevec). By August 2001, bone marrow damage decreased to 66% from the previous 80%.
(§1) DdU units used in the treatment were determined as described in Example 1 and 2.

HT199 melanoma cell line = test: In vitro growth of melanoma cells with DDW, doxorubicin and their combination; assay type: cell-based; settings: 450 and 900 nM in normal (150 ppm D) medium
Method: Curves 4 and 6 show the inhibition by DDW plus the mentioned two concentrations of doxorubicin.
In the experiment, the effect of DDW, doxorubicin, and their combination was tested on HT199 melanoma cell line.

kidney tumor = test: Case report: kidney tumor patient, Sutent with and without DDW; assay type: in vivo, human
Method: c/ With another tyrosine kinase inhibiting agent, Sutent, a similar positive interaction was found. In one patient, kidney tumor was diagnosed in spring 2003 and was surgically removed. Up to spring 2006, three further operations were necessary because of the disease recidivating.
as §1

[2] = test system: prostate cancer with bone metastasis; test: Prostate cancer case reports: PSA tumor marker and remission versus DDW consumption; assay type: in vivo, human; settings: patient, PSA over 1000 ng/mL, before start of DDW
Method: FIG. 1: Data of a patient with prostate cancer and bone metastasis, with extremely high PSA level (1000 ng/mL). Beside conventional treatment, DDW was also applied. In spite of the potentially bad prognosis the patient remained in regression for 9 years. PSA level: left Y axis and broken line; DDW dose: right Y axis and solid line.
FIG. 2: patient with prostate cancer and extreme PSA levels. […] Interrupting the DDW cure caused increasing PSA levels, and after finishing DDW consumption in December 2009 PSA was soaring. Broken line: PSA level, solid line: DDW dose.
Patient 2 (FIG. 1) had bone metastasis in the early phase of the disease, PSA was over 1000 ng/mL. […] They started consuming DDW in April 2003, 640 days (=21.3 months) after diagnosing bone metastasis with 15.0 ng/mL PSA. They consumed DDW for nearly one year at DdU of 1.0. A break of 6 months followed this cure, during which the disease progressed and PSA increased from 1 to 4.34 ng/mL. A new DDW cure brought regression and PSA below 1 ng/mL. 4 years after diagnosis, Androcure was replaced with Suprefact. Further DDW treatments (see FIG. 1 for DdU values) PSA was decreased in the following 3 years and the patient had no complaints in spite of the existing bone metastasis and the generally bad prognosis. […]

SMILES: CC(=O)O[C@@]12CO[C@@H]1C[C@H](O)[C@@]1(C)C(=O)[C@H](O)C3=C(C)[C@@H](OC(=O)[C@H](O)[C@@H](NC(=O)OC(C)(C)C)c4ccccc4)C[C@@](O)([C@@H](OC(=O)c4ccccc4)[C@H]21)C3(C)C [Taxotere, docetaxel]
- MST (breast cancer): 20-22 months

SMILES: Cc1ccc(NC(=O)c2ccc(CN3CCN(C)CC3)cc2)cc1Nc1nccc(-c2cccnc2)n1 [STI 571]
- disease status ([1]; one CML patient consuming DDW and on STI 571, April 2002): fully negative
- bone marrow damage ([1]; one CML patient consuming DDW, STI 571 from February 2001, by August 2001, previously 80%): 66%

SMILES: COc1cccc2c1C(=O)c1c(O)c3c(c(O)c1C2=O)C[C@@](O)(C(=O)CO)C[C@@H]3O[C@H]1C[C@H](N)[C@H](O)[C@H](C)O1 [doxorubicin]
- effect on growth of melanoma cells (HT199 melanoma cell line): inhibitory effect

SMILES: CCN(CC)CCNC(=O)c1c(C)[nH]c(/C=C2\C(=O)Nc3ccc(F)cc32)c1C [Sutent]
- tumor response (kidney tumor; one kidney tumor patient, Sutent without DDW, progression again in March 2007): efficient initially
- tumor response (kidney tumor; same patient, DDW in parallel with Sutent from autumn 2007): the tumors shrank again
- tumor response on images (kidney tumor; same patient, DDW in parallel with Sutent, three years later): ongoing decrease of the tumor sizes

SMILES: C[C@]12CC[C@@H]3c4ccc(OC(=O)N(CCCl)CCCl)cc4CC[C@H]3[C@@H]1CC[C@@H]2OP(=O)(O)O [Estracyt]
- PSA change [2]: PSA was rapidly lowered

SMILES: CC(=O)O[C@]1(C(C)=O)CC[C@H]2[C@@H]3C=C(Cl)C4=CC(=O)[C@@H]5C[C@@H]5[C@]4(C)[C@H]3CC[C@@]21C [Androcure]
- PSA change [2]: PSA was rapidly lowered
